Data published in patent US9987276B2 (Celgene CAR LLC, priority 2008, dated 2018).

Columns and labels:
BTK [1] = target: T1, BTK (Homo sapiens (Human), UniProt Q06187); assay: BTK occupancy in Ramos cells with I-7 and probe I-215 using streptavidin beads; format: cell-based; settings: 1 hour, higher concentrations of I-7 (0.1, 0.05 μM)
Experimental: Ramos cells were incubated with 0.1, 0.05, 0.01, or 0.001 μM I-7 in serum free media for 1 hour at 37° C. The cells were pelleted by centrifugation and lysed in Cell Extraction buffer (Invitrogen) for 10 minutes on ice, centrifuged (10 minutes at 14,000 rpm) and the supernatant was collected. Cell lysates were incubated with 1 μM I-215 for 1 hour at room temperature, then incubated with streptavidin-coupled agarose beads (ThermoFisher) overnight at 4° C. The beads were washed three times with lysis buffer and the bound proteins were boiled off the beads at 95° C. for 5 minutes in 4×LDS Sample Buffer. The amount of BTK associated with the probe I-215 was assessed by BTK western blot. All values were normalized to the DMSO-treated sample which is set to 100%.

BTK [2] = target: T1, BTK; assay: BTK occupancy from in vitro samples by ELISA (Ramos cells); format: cell-based; settings: ELISA with probe I-215
Experimental: In order to determine the amount of free BTK in cell or tissue lysates, an ELISA protocol was employed that utilizes a biotinylated probe compound that binds only to free, unoccupied BTK. The conjugated biotin is captured on a streptavidin-coated ELISA plate and detected with a mouse anti-BTK antibody (Becton Dickinson, Franklin Lakes, N.J., USA) and a secondary goat anti-mouse HRP antibody (Zymed, South San Francisco, Calif., USA).
All samples were prepared with equal concentrations of Biorad lysis buffer (Hercules, Calif., USA), 0.5% bovine serum albumin in PBS with 0.05% Tween-20 to give a final concentration of 1 μM I-215. Samples were incubated in a mixing plate for 1 hr at room temperature while shaking to allow probe compound I-215 to bind to free BTK. After incubation with I-215, samples were added to a washed, streptavidin-coated ELISA plate (Pierce, Rockford, Ill., USA) and incubated for 1 hr at room temperature while shaking. The plate was then washed with PBS containing 0.05% Tween-20 using an automatic plate washer. Anti-BTK antibody was prepared at 1:1000 dilution in 0.5% BSA in PBS (0.05% Tween-20) and added to the ELISA plate. The plate was incubated for 1 hr at room temperature while shaking. The plate was washed as described above and the secondary HRP antibody was prepared at 1:5000 dilution in 0.5% BSA in PBS (0.05% Tween-20). The plate was incubated and washed as described above. TMB was added to the plate, and OD650 was monitored until reaching 1 OD unit. The reaction was then stopped with addition of H2SO4. The plate was analyzed using Gen 5 software, and a 4 Parameter Logistic curve was employed to quantitate samples. Recombinant BTK (Invitrogen, Carlsbad, Calif., USA) was used for the standard curve.
A concentration designated as “A” is greater than 1 nM; a concentration designated as “B” is greater than 10 nM; and a concentration designated as “C” is greater than 50 nM.

T1 sequence (Q06187 whole entry): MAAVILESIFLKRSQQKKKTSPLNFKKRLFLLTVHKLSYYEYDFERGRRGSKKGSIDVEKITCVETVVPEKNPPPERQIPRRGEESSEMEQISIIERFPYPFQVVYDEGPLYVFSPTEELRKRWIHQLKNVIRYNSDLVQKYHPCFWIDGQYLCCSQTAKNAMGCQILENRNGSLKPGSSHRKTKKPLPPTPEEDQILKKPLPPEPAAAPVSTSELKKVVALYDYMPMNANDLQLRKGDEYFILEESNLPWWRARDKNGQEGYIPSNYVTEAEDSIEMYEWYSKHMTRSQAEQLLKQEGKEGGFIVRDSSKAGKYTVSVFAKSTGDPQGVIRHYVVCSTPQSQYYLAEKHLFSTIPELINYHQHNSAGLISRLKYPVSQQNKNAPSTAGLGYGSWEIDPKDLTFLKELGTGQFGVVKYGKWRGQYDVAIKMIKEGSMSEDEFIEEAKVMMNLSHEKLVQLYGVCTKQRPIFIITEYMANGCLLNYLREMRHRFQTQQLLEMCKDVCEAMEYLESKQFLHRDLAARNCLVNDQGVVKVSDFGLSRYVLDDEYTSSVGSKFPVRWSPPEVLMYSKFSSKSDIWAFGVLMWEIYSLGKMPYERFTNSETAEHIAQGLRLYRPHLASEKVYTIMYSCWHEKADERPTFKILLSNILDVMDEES

## C=CC(=O)Nc1cccc(Nc2nc(Nc3ccccc3)ncc2C)c1 [Compound I-7, N-(3-(5-methyl-2-(phenylamino)pyrimidin-4-ylamino)phenyl) acrylamide]
BTK [1]
  BTK occupancy (BTK available to probe I-215): fully occupied
BTK [2]
  >50% occupancy (concentration at which >50% of BTK is occupied): A (greater than 1 nM)
  >90% occupancy (concentration at which >90% of BTK is occupied): B (greater than 10 nM)
